# Test results as given in publication PMC5218480 (PLoS ONE, 2017).
# Test system: MV-4-11 cells
# Test: Gene expression microarray analysis (Affymetrix PrimeView) and GSEA
# Assay type: cell-based, human
# Parameters: RFU PODN (11730768_x_at) / Fold change /veh PODN (11730768_x_at) / RFU LINC00158 (11744669_a_at) / Fold change /veh LINC00158 (11744669_a_at) / RFU DUSP10 (11751237_a_at) / Fold change /veh DUSP10 (11751237_a_at) / RFU ID3 (11757404_x_at) / Fold change /veh ID3 (11757404_x_at) / RFU PLEKHG5 (11737974_s_at) / Fold change /veh PLEKHG5 (11737974_s_at) / RFU LRRC4B (11730491_at) / Fold change /veh LRRC4B (11730491_at) / RFU GIMAP4 (11747438_a_at) / Fold change /veh GIMAP4 (11747438_a_at) / RFU KRT8 (11758183_x_at) / Fold change /veh KRT8 (11758183_x_at) / RFU CNN1 (11734310_a_at) / Fold change /veh CNN1 (11734310_a_at) / RFU VPS37D (11726825_at) / Fold change /veh VPS37D (11726825_at) / RFU C10orf10 (11716522_x_at) / Fold change /veh C10orf10 (11716522_x_at) / RFU KIR2DL2 /// KIR2DL4 /// KIR2DL5A /// KIR2DL5B /// KIR2DS1 /// KIR2DS2 /// KIR2DS3 /// KIR2DS4 /// KIR3DL3 /// KIR3DL3 /// KIR3DS1 (11738374_at) / Fold change /veh KIR2DL2 /// KIR2DL4 /// KIR2DL5A /// KIR2DL5B /// KIR2DS1 /// KIR2DS2 /// KIR2DS3 /// KIR2DS4 /// KIR3DL3 /// KIR3DL3 /// KIR3DS1 (11738374_at) / RFU C1QL1 (11718748_at) / Fold change /veh C1QL1 (11718748_at) / RFU TMPRSS4 (11747572_a_at) / Fold change /veh TMPRSS4 (11747572_a_at) / RFU HAMP (11756126_x_at) / Fold change /veh HAMP (11756126_x_at) / RFU RNFT2 (11725882_a_at) / Fold change /veh RNFT2 (11725882_a_at) / RFU NR4A2 (11747474_a_at) / Fold change /veh NR4A2 (11747474_a_at) / RFU ABCC12 (11746883_a_at) / Fold change /veh ABCC12 (11746883_a_at) / RFU TMEM136 (11760407_x_at) / Fold change /veh TMEM136 (11760407_x_at) / RFU CLDN22 /// WWC2 (11732394_at) / Fold change /veh CLDN22 /// WWC2 (11732394_at) / RFU HLA-DPB1 (11760878_x_at) / Fold change /veh HLA-DPB1 (11760878_x_at) / RFU SPINT1 (11716480_a_at) / Fold change /veh SPINT1 (11716480_a_at) / RFU GAP43 (11754022_s_at) / Fold change /veh GAP43 (11754022_s_at) / RFU A4GNT (11735810_at) / Fold change /veh A4GNT (11735810_at) / RFU PRB3 (11715151_x_at) / Fold change /veh PRB3 (11715151_x_at) / RFU TUBB4B (11761932_at) / Fold change /veh TUBB4B (11761932_at) / RFU CAPN14 (11732068_a_at) / Fold change /veh CAPN14 (11732068_a_at) / RFU TMCC2 (11721928_a_at) / Fold change /veh TMCC2 (11721928_a_at) / RFU IRGQ (11745062_a_at) / Fold change /veh IRGQ (11745062_a_at) / RFU FAM174B (11720279_a_at) / Fold change /veh FAM174B (11720279_a_at) / RFU TMPRSS4 (11748680_a_at) / Fold change /veh TMPRSS4 (11748680_a_at) / RFU FAM212B (11763350_a_at) / Fold change /veh FAM212B (11763350_a_at) / RFU PLEKHG5 (11743358_a_at) / Fold change /veh PLEKHG5 (11743358_a_at) / RFU ZSCAN30 (11745921_a_at) / Fold change /veh ZSCAN30 (11745921_a_at) / RFU CMKLR1 (11741424_a_at) / Fold change /veh CMKLR1 (11741424_a_at) / RFU LOC101060620 /// MAPK8IP1 (11723275_at) / Fold change /veh LOC101060620 /// MAPK8IP1 (11723275_at) / RFU SPTSSB (11747773_x_at) / Fold change /veh SPTSSB (11747773_x_at) / RFU PRSS12 (11739890_at) / Fold change /veh PRSS12 (11739890_at) / RFU BIN1 (11741810_x_at) / Fold change /veh BIN1 (11741810_x_at) / RFU WNT11 (11732464_a_at) / Fold change /veh WNT11 (11732464_a_at) / RFU C10orf10 (11716521_a_at) / Fold change /veh C10orf10 (11716521_a_at) / RFU C5orf56 (11738089_at) / Fold change /veh C5orf56 (11738089_at) / RFU CYB561 (11721691_x_at) / Fold change /veh CYB561 (11721691_x_at) / RFU ANKRD19P (11752326_a_at) / Fold change /veh ANKRD19P (11752326_a_at) / RFU OR2T12 /// OR2T33 /// OR2T8 (11738714_s_at) / Fold change /veh OR2T12 /// OR2T33 /// OR2T8 (11738714_s_at) / RFU VCAN (11748164_a_at) / Fold change /veh VCAN (11748164_a_at) / RFU JSRP1 (11732532_at) / Fold change /veh JSRP1 (11732532_at) / RFU KRTAP10-11 (11738290_x_at) / Fold change /veh KRTAP10-11 (11738290_x_at) / RFU MYO3A (11730013_a_at) / Fold change /veh MYO3A (11730013_a_at) / RFU EBF3 (11725865_a_at) / Fold change /veh EBF3 (11725865_a_at) / RFU CAMK2N1 (11719241_x_at) / Fold change /veh CAMK2N1 (11719241_x_at) / RFU C5orf56 (11738088_a_at) / Fold change /veh C5orf56 (11738088_a_at) / RFU OLFML3 (11715873_a_at) / Fold change /veh OLFML3 (11715873_a_at) / RFU LOC100653217 /// NTM (11731650_a_at) / Fold change /veh LOC100653217 /// NTM (11731650_a_at) / RFU MAPK11 (11762145_a_at) / Fold change /veh MAPK11 (11762145_a_at) / RFU FIZ1 (11724087_x_at) / Fold change /veh FIZ1 (11724087_x_at) / RFU OASL (11726364_x_at) / Fold change /veh OASL (11726364_x_at) / RFU SOX15 (11748057_x_at) / Fold change /veh SOX15 (11748057_x_at) / RFU CD79A (11719716_a_at) / Fold change /veh CD79A (11719716_a_at) / RFU HIST1H1D (11736915_at) / Fold change /veh HIST1H1D (11736915_at) / RFU CASKIN2 (11723855_a_at) / Fold change /veh CASKIN2 (11723855_a_at) / RFU LOC730098 (11760151_x_at) / Fold change /veh LOC730098 (11760151_x_at) / RFU OR4N2 (11742367_at) / Fold change /veh OR4N2 (11742367_at) / RFU PRRT2 (11749266_a_at) / Fold change /veh PRRT2 (11749266_a_at) / RFU SNX32 (11753110_a_at) / Fold change /veh SNX32 (11753110_a_at) / RFU CDHR5 (11726645_a_at) / Fold change /veh CDHR5 (11726645_a_at) / RFU RCAN1 (11760418_a_at) / Fold change /veh RCAN1 (11760418_a_at) / RFU FAM167A (11723789_a_at) / Fold change /veh FAM167A (11723789_a_at) / RFU FAM26E (11764081_at) / Fold change /veh FAM26E (11764081_at) / RFU ISYNA1 (11749810_s_at) / Fold change /veh ISYNA1 (11749810_s_at) / RFU ACY1 (11761880_at) / Fold change /veh ACY1 (11761880_at) / RFU 11764098_at / Fold change /veh 11764098_at / RFU SAMD14 (11745864_x_at) / Fold change /veh SAMD14 (11745864_x_at) / RFU NPB (11741838_a_at) / Fold change /veh NPB (11741838_a_at) / RFU TMPRSS6 (11731388_a_at) / Fold change /veh TMPRSS6 (11731388_a_at) / RFU KRTAP10-2 (11738614_at) / Fold change /veh KRTAP10-2 (11738614_at) / RFU ARHGAP8 /// PRR5-ARHGAP8 (11727945_x_at) / Fold change /veh ARHGAP8 /// PRR5-ARHGAP8 (11727945_x_at) / RFU KRTAP5-7 /// NADSYN1 (11734609_at) / Fold change /veh KRTAP5-7 /// NADSYN1 (11734609_at) / RFU RASL12 (11751679_a_at) / Fold change /veh RASL12 (11751679_a_at) / RFU CDKN2B (11736163_a_at) / Fold change /veh CDKN2B (11736163_a_at) / RFU PRF1 (11729649_at) / Fold change /veh PRF1 (11729649_at) / RFU, ZNF638 /// ZNF638-IT1 / Fold change vs veh, ZNF638 /// ZNF638-IT1 / RFU, PANK3 / Fold change vs veh, PANK3 / RFU, SH3YL1 / Fold change vs veh, SH3YL1 / RFU, ZEB2 / Fold change vs veh, ZEB2 / RFU, NRIP1 / Fold change vs veh, NRIP1 / RFU, PTTG1IP / Fold change vs veh, PTTG1IP / RFU, CAPN2 / Fold change vs veh, CAPN2 / RFU, MED14 / Fold change vs veh, MED14 / RFU, SNORA58 / Fold change vs veh, SNORA58 / RFU, C1orf63 / Fold change vs veh, C1orf63 / RFU, LRRFIP1 / Fold change vs veh, LRRFIP1 / RFU, NDUFAF7 / Fold change vs veh, NDUFAF7 / RFU, SLC12A2 / Fold change vs veh, SLC12A2 / RFU, IBTK / Fold change vs veh, IBTK / RFU, ESF1 / Fold change vs veh, ESF1 / Fold change vs veh, TMEM50B / RFU, TAOK1 / Fold change vs veh, TAOK1 / RFU, ACBD3 / Fold change vs veh, ACBD3 / RFU, TMA16 / Fold change vs veh, TMA16 / RFU, RWDD3 / Fold change vs veh, RWDD3 / RFU, BCAT1 / Fold change vs veh, BCAT1 / RFU, EDEM3 / Fold change vs veh, EDEM3 / RFU, TMEM33 / Fold change vs veh, TMEM33 / RFU, WDR75 / Fold change vs veh, WDR75 / RFU, AHCTF1 / Fold change vs veh, AHCTF1 / RFU, TFRC / Fold change vs veh, TFRC / RFU, ZDHHC17 / Fold change vs veh, ZDHHC17 / RFU, NOM1 / Fold change vs veh, NOM1 / RFU, ARL8B / Fold change vs veh, ARL8B / RFU, ZBTB11 / Fold change vs veh, ZBTB11 / RFU, TAMM41 / Fold change vs veh, TAMM41 / RFU, KIAA1704 /// LOC100996395 / Fold change vs veh, KIAA1704 /// LOC100996395 / RFU, ING1 / Fold change vs veh, ING1 / RFU, TRMT61B / Fold change vs veh, TRMT61B / RFU, FUBP3 / Fold change vs veh, FUBP3 / RFU, TP53 / Fold change vs veh, TP53 / RFU, TNKS2 / Fold change vs veh, TNKS2 / RFU, ZFP14 / Fold change vs veh, ZFP14 / RFU, ACTR2 / Fold change vs veh, ACTR2 / RFU, PPP3R1 / Fold change vs veh, PPP3R1 / RFU, PIK3R1 / Fold change vs veh, PIK3R1 / RFU, HNRNPA1 / Fold change vs veh, HNRNPA1 / RFU, RNF170 / Fold change vs veh, RNF170 / RFU, ZNF28 / Fold change vs veh, ZNF28 / RFU, RNGTT / Fold change vs veh, RNGTT / RFU, OGT / Fold change vs veh, OGT / RFU, BRD1 / Fold change vs veh, BRD1 / RFU, MARS / Fold change vs veh, MARS / RFU, ZNF655 / Fold change vs veh, ZNF655 / RFU, FAHD1 / Fold change vs veh, FAHD1 / RFU, BDP1 / Fold change vs veh, BDP1 / RFU, LRRCC1 / Fold change vs veh, LRRCC1 / RFU, ARID1A / Fold change vs veh, ARID1A / RFU, ZNF146 / Fold change vs veh, ZNF146 / RFU, ZNF330 / Fold change vs veh, ZNF330 / RFU, GPN3 / Fold change vs veh, GPN3 / RFU, C9orf123 / Fold change vs veh, C9orf123 / RFU, N4BP2L2 / Fold change vs veh, N4BP2L2 / RFU, ARFIP1 / Fold change vs veh, ARFIP1 / RFU, FAM179B / Fold change vs veh, FAM179B / RFU, BCL10 / Fold change vs veh, BCL10 / RFU, UHRF1BP1L / Fold change vs veh, UHRF1BP1L / RFU, BET1 / Fold change vs veh, BET1 / RFU, CNOT2 / Fold change vs veh, CNOT2 / RFU, ZNF268 / Fold change vs veh, ZNF268 / Fold change vs veh, ZNF507 / RFU, DGCR2 / Fold change vs veh, DGCR2 / RFU, WDSUB1 / Fold change vs veh, WDSUB1 / Fold change vs veh, HSP90B1 /// MIR3652 / RFU, ADSS / Fold change vs veh, ADSS / RFU, GK / Fold change vs veh, GK / RFU, ZNF148 / Fold change vs veh, ZNF148 / RFU, TAF9 / Fold change vs veh, TAF9 / RFU, SLC1A5 / Fold change vs veh, SLC1A5 / RFU, SLMO2 / Fold change vs veh, SLMO2 / RFU, ABCC4 / Fold change vs veh, ABCC4 / RFU, LOC101060439 /// RAP1B / Fold change vs veh, LOC101060439 /// RAP1B / RFU, RFX7 / Fold change vs veh, RFX7 / RFU, GTPBP10 / Fold change vs veh, GTPBP10 / RFU, CNEP1R1 / Fold change vs veh, CNEP1R1 / RFU, BIVM-ERCC5 /// ERCC5 / Fold change vs veh, BIVM-ERCC5 /// ERCC5 / RFU, ILF3 / Fold change vs veh, ILF3 / RFU 11762660_at / Fold change /veh 11762660_at / RFU VCAN (11757783_s_at) / Fold change /veh VCAN (11757783_s_at) / RFU DDX43 (11728927_at) / Fold change /veh DDX43 (11728927_at) / RFU KRT8 (11758188_x_at) / Fold change /veh KRT8 (11758188_x_at) / RFU NKD1 (11759106_at) / Fold change /veh NKD1 (11759106_at) / RFU SRD5A1 (11742802_a_at) / Fold change /veh SRD5A1 (11742802_a_at) / RFU TPSAB1 /// TPSB2 (11721975_s_at) / Fold change /veh TPSAB1 /// TPSB2 (11721975_s_at) / RFU GSTM3 (11746129_a_at) / Fold change /veh GSTM3 (11746129_a_at) / RFU IL23R (11737362_x_at) / Fold change /veh IL23R (11737362_x_at) / RFU TMEM51 (11727254_a_at) / Fold change /veh TMEM51 (11727254_a_at) / RFU PIWIL2 (11732686_x_at) / Fold change /veh PIWIL2 (11732686_x_at) / RFU ORM1 (11744905_x_at) / Fold change /veh ORM1 (11744905_x_at) / RFU CCDC152 (11743942_at) / Fold change /veh CCDC152 (11743942_at) / RFU ECM1 (11717891_a_at) / Fold change /veh ECM1 (11717891_a_at) / RFU IL23R (11748794_a_at) / Fold change /veh IL23R (11748794_a_at) / RFU TNFAIP8L3 (11732012_x_at) / Fold change /veh TNFAIP8L3 (11732012_x_at) / RFU MBOAT4 (11741988_at) / Fold change /veh MBOAT4 (11741988_at) / RFU 11764193_at / Fold change /veh 11764193_at / RFU TMEM53 (11763286_at) / Fold change /veh TMEM53 (11763286_at) / RFU MAGEB2 (11727129_at) / Fold change /veh MAGEB2 (11727129_at) / RFU TMEM200A (11744735_a_at) / Fold change /veh TMEM200A (11744735_a_at) / RFU CCDC152 (11751479_a_at) / Fold change /veh CCDC152 (11751479_a_at) / RFU FAM211A (11726209_a_at) / Fold change /veh FAM211A (11726209_a_at) / RFU RGS16 (11746705_a_at) / Fold change /veh RGS16 (11746705_a_at) / RFU VCAN (11755009_s_at) / Fold change /veh VCAN (11755009_s_at) / RFU RHOB (11743442_s_at) / Fold change /veh RHOB (11743442_s_at) / RFU RGS16 (11720943_a_at) / Fold change /veh RGS16 (11720943_a_at) / RFU RGS16 (11720944_at) / Fold change /veh RGS16 (11720944_at) / RFU, VPS4B / Fold change vs veh, VPS4B / RFU, CREB1 / Fold change vs veh, CREB1 / RFU, DNAJC13 / Fold change vs veh, DNAJC13 / RFU, GNAQ / Fold change vs veh, GNAQ / RFU, CDK5R1 / Fold change vs veh, CDK5R1 / RFU, ZRANB3 / Fold change vs veh, ZRANB3 / RFU, CUL4A / Fold change vs veh, CUL4A / RFU, CCNY / Fold change vs veh, CCNY / RFU, UFL1 / Fold change vs veh, UFL1 / RFU, COG3 / Fold change vs veh, COG3 / RFU, DIAPH2 / Fold change vs veh, DIAPH2 / RFU, SKA2 / Fold change vs veh, SKA2 / RFU, AFF3 / Fold change vs veh, AFF3 / RFU, LMF1 / Fold change vs veh, LMF1 / RFU, IPO11 / Fold change vs veh, IPO11 / RFU, DFFB / Fold change vs veh, DFFB / RFU, FOXP1 / Fold change vs veh, FOXP1 / RFU, CARD8 / Fold change vs veh, CARD8 / RFU, STRN3 / Fold change vs veh, STRN3 / RFU, ADK / Fold change vs veh, ADK / RFU, RASSF2 / Fold change vs veh, RASSF2 / RFU, WIPF1 / Fold change vs veh, WIPF1 / RFU, LARP1B / Fold change vs veh, LARP1B / RFU, RASA1 / Fold change vs veh, RASA1 / RFU, RB1 / Fold change vs veh, RB1 / RFU, PPFIA1 / Fold change vs veh, PPFIA1 / RFU, MAT2A / Fold change vs veh, MAT2A / RFU, CCT5 / Fold change vs veh, CCT5 / RFU, WDR92 / Fold change vs veh, WDR92 / RFU, CUX1 / Fold change vs veh, CUX1 / RFU, TTC7A / Fold change vs veh, TTC7A / RFU, TMEM135 / Fold change vs veh, TMEM135 / RFU, DEPTOR / Fold change vs veh, DEPTOR / RFU, CPM / Fold change vs veh, CPM / RFU, DNAJB6 / Fold change vs veh, DNAJB6 / RFU, CACNA2D3 / Fold change vs veh, CACNA2D3 / RFU, DTX4 / Fold change vs veh, DTX4 / RFU, TFCP2 / Fold change vs veh, TFCP2 / RFU, GMCL1 /// GMCL1P1 / Fold change vs veh, GMCL1 /// GMCL1P1 / RFU, AEBP2 / Fold change vs veh, AEBP2 / RFU, SNHG1 /// SNORD22 /// SNORD25 /// SNORD26 /// SNORD27 /// SNORD28 /// SNORD29 /// SNORD31 / Fold change vs veh, SNHG1 /// SNORD22 /// SNORD25 /// SNORD26 /// SNORD27 /// SNORD28 /// SNORD29 /// SNORD31 / Fold change (Aza/veh), C12orf56 (ProbeSet 11735607_a_at) / Fold change (ACY-1035/veh), C12orf56 (ProbeSet 11735607_a_at) / Fold change (Aza/veh), FGFR1OP (ProbeSet 11751329_s_at) / Fold change (ACY-1035/veh), FGFR1OP (ProbeSet 11751329_s_at) / Fold change (Aza/veh), VPS36 (ProbeSet 11739960_a_at) / Fold change (ACY-1035/veh), VPS36 (ProbeSet 11739960_a_at) / RFU SYPL1 (11715823_x_at) / Fold change /veh SYPL1 (11715823_x_at) / RFU IGFBP7 (11715501_s_at) / Fold change /veh IGFBP7 (11715501_s_at) / RFU REEP3 (11722064_at) / Fold change /veh REEP3 (11722064_at) / RFU IGLL1 (11728026_x_at) / Fold change /veh IGLL1 (11728026_x_at): dose or concentration left out as unconfirmed
# Conditions: MV-4-11 cells, 48 hours
smiles,measurement,value
Nc1ncn([C@@H]2O[C@H](CO)[C@@H](O)[C@H]2O)c(=O)n1 [azacitidine],RFU NPB (11741838_a_at),80.08 RFU
